For 1 molecule, Kd results are on record in paper PMC3466060 (2011).

This assay has as its system 3′-Fl-AM1A-(18)-Rhd (RNA, riboswitch) GAGGGUGGAACCGCGCUUCGGCGUCCCUC
Briefly: FRET binding titration. The conditions noted are these: 50 mM NaCl, 5 mM MgCl2.

For `O=C(Cc1ccccc1)OCC1OC(=O)NC1CN1CCN(c2ccccc2)CC1` (racemic), the Kd (commonly the concentration at which binding is half-saturated) was more than 100 µM.
